Reference: ChEMBL document CHEMBL5465560, “Selectivity Literature for EUbOPEN Chemogenomic Library” (2024)
Values belong to the molecule of their own block, whether it stands above or below them.

Key:
[1] = biological target: Ephrin type-A receptor 2 (Homo sapiens) (UniProt P29317); assay: Selectivity interaction (Kinase panel (literature)) EUB0001199aCl EPHA2; details: at 1 µM
[2] = biological target: Serine/threonine-protein kinase PLK3 (Homo sapiens, UniProt Q9H4B4); assay: Selectivity interaction (KinomeScan (DiscoverX)) EUB0001079a PLK3; details: at 1 µM
[3] = biological target: Serine/threonine-protein kinase N1 (Homo sapiens, UniProt Q16512); assay: Selectivity interaction (KinomeScan (DiscoverX)) EUB0001079a PKN1; details: at 1 µM
[4] = biological target: T1, Dual specificity mitogen-activated protein kinase kinase 3 (Homo sapiens) (UniProt P46734); assay: Selectivity interaction (KinomeScan (DiscoverX)) EUB0000045b MAP2K3
T1 sequence (whole entry): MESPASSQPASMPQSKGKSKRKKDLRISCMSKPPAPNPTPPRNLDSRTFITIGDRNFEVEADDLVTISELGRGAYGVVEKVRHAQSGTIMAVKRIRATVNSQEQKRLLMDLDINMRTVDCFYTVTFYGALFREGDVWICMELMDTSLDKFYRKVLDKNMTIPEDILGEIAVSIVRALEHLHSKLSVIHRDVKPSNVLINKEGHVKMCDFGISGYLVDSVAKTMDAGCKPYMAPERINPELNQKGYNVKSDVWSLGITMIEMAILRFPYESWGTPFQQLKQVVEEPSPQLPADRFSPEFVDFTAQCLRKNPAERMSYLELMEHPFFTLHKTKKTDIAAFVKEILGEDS

[5] = biological target: High affinity nerve growth factor receptor (Homo sapiens, UniProt P04629); assay: Selectivity interaction (Upstate Kinase Profiler service (Millipore)) EUB0000056c NTRK1; details: at 1 µM
[6] = biological target: Interferon-induced, double-stranded RNA-activated protein kinase (Homo sapiens) (UniProt P19525); details: at 10 µM
[7] = biological target: Serine/threonine-protein kinase SIK2 (Homo sapiens) (UniProt Q9H0K1); details: at 10 µM
[8] = biological target: Phosphatidylinositol 4-kinase beta (Homo sapiens, UniProt Q9UBF8); assay: Selectivity interaction (ActivX KiNativ screen (kinase selectivity in THP-1 cell lysates)) EUB0000639a PI4KB; assay type: subcellular; details: lysate, at 5 µM
[9] = biological target: T2, Bromodomain and PHD finger-containing protein 3 (Homo sapiens) (UniProt Q9ULD4); assay: Selectivity interaction (Bromodomain panel (DSF asssay)) EUB0000270b BRPF3
T2 sequence (whole entry): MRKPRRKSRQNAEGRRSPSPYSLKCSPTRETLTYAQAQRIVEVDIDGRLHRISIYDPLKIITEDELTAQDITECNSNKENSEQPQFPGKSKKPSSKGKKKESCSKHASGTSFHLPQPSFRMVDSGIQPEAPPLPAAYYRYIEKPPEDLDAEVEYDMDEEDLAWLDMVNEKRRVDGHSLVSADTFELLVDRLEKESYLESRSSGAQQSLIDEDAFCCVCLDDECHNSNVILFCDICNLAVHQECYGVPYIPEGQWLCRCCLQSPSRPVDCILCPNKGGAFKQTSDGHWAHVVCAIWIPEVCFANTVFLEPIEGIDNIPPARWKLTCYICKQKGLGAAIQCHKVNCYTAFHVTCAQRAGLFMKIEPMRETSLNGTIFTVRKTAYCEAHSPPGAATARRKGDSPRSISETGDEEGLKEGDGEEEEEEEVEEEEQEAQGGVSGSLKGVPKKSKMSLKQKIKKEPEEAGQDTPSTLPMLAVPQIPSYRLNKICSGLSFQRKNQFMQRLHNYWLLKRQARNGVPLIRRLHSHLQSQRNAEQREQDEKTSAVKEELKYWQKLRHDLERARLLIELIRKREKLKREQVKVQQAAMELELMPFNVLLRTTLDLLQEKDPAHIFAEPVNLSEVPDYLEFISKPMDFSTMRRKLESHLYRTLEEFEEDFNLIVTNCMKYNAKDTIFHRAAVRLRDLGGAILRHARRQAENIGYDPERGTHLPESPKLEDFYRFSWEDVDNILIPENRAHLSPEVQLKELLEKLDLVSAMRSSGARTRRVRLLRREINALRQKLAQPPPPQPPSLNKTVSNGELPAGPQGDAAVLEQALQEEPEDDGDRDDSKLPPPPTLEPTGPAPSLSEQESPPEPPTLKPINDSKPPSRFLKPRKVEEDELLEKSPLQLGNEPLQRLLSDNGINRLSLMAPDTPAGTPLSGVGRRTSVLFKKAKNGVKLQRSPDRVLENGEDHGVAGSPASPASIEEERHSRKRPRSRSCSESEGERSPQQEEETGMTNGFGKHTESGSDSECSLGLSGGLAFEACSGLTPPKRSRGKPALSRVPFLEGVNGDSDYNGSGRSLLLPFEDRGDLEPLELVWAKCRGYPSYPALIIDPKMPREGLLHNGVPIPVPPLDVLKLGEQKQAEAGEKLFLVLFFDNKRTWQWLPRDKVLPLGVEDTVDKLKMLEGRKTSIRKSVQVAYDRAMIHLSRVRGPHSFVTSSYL

[10] = biological target: Serine/threonine-protein kinase MARK2 (Homo sapiens) (UniProt Q7KZI7); assay: Selectivity interaction (ProQinase) EUB0000171b MARK2
[11] = biological target: Protein kinase C theta type (Homo sapiens, UniProt Q04759); assay: Selectivity interaction (KinomeScan (DiscoverX)) EUB0000666a PRKCQ; details: at 10 µM
[12] = biological target: T3, Serine/threonine-protein kinase RIO1 (Homo sapiens) (UniProt Q9BRS2); assay: Selectivity interaction (KINOMEscan (DiscoverX)) EUB0001868a RIOK1; details: at 1 µM
T3 sequence (whole entry): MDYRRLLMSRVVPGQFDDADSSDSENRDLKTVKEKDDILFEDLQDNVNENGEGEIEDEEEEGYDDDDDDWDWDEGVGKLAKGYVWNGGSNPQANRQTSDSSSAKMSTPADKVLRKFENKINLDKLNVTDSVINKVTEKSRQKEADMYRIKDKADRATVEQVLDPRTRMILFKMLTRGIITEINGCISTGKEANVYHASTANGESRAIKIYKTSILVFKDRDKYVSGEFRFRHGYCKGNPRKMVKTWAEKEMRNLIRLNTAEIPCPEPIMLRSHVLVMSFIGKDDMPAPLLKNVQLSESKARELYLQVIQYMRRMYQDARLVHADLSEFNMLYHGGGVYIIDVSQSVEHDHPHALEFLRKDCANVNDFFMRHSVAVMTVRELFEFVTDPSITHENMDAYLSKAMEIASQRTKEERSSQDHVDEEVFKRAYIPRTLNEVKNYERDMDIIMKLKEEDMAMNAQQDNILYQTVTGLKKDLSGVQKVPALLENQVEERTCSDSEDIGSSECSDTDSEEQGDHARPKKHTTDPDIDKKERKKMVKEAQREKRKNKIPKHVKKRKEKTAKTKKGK

Chain of Serine/threonine-protein kinase MARK2 (Homo sapiens) (Q7KZI7 whole entry): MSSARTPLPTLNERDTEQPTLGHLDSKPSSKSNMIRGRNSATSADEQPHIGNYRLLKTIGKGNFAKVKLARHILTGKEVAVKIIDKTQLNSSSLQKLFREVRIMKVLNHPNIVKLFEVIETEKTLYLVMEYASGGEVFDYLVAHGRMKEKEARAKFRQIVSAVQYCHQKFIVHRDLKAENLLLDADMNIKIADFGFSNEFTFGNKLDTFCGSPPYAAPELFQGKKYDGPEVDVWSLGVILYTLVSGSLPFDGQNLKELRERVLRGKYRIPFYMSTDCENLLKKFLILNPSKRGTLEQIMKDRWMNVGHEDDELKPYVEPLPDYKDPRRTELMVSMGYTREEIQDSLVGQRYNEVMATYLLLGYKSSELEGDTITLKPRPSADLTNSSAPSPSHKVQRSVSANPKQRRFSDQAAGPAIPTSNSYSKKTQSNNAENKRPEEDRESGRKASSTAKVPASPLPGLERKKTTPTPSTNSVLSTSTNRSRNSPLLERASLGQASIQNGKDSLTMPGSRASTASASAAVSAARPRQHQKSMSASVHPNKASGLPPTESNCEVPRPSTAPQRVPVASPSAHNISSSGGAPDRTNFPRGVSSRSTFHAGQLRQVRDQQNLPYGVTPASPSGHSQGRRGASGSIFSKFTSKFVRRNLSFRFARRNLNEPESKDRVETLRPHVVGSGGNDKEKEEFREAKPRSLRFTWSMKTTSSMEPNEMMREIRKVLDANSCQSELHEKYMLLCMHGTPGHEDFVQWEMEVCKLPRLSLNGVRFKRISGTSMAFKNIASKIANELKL
Chain of Protein kinase C theta type (Q04759 whole entry, looked up): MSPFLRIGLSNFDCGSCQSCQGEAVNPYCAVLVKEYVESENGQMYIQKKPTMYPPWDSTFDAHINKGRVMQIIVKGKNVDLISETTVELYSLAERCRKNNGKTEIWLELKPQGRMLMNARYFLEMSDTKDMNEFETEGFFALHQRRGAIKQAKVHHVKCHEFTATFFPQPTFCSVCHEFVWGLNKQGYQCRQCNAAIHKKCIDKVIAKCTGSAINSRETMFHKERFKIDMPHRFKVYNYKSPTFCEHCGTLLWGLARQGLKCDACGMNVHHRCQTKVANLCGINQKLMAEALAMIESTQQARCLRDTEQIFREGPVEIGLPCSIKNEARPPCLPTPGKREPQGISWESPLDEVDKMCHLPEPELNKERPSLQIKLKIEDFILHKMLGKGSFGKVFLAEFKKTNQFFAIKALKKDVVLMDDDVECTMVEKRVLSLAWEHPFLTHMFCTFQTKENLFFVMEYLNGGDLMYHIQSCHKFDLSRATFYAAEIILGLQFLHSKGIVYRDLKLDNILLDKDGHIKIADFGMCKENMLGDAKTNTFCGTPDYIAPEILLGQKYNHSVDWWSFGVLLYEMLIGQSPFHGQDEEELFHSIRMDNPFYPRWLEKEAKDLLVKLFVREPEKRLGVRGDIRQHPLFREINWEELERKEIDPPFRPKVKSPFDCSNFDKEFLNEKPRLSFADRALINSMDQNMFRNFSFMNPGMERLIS
Chain of Phosphatidylinositol 4-kinase beta (Q9UBF8 2-816 limits assumed): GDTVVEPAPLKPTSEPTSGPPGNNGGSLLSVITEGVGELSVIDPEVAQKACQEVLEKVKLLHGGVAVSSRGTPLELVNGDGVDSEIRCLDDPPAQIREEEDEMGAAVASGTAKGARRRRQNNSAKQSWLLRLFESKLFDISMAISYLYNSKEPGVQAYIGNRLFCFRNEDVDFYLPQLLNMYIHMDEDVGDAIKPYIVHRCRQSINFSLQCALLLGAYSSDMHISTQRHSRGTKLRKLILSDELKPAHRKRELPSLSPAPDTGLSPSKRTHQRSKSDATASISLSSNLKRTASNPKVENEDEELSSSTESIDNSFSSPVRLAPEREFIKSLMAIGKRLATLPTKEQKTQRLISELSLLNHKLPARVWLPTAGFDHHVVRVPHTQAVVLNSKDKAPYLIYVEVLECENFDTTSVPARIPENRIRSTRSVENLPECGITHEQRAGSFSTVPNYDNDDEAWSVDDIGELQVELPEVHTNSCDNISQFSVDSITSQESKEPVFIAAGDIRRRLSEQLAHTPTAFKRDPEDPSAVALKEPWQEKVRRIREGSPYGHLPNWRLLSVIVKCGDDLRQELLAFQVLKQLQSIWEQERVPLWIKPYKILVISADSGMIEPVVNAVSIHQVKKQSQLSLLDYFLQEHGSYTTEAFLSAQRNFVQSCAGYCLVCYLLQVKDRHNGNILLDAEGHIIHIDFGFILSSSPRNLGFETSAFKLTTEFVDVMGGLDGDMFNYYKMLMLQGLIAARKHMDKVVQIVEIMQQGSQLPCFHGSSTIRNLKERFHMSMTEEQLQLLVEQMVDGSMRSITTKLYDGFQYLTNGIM
Chain of Serine/threonine-protein kinase PLK3 (Q9H4B4 whole entry, looked up): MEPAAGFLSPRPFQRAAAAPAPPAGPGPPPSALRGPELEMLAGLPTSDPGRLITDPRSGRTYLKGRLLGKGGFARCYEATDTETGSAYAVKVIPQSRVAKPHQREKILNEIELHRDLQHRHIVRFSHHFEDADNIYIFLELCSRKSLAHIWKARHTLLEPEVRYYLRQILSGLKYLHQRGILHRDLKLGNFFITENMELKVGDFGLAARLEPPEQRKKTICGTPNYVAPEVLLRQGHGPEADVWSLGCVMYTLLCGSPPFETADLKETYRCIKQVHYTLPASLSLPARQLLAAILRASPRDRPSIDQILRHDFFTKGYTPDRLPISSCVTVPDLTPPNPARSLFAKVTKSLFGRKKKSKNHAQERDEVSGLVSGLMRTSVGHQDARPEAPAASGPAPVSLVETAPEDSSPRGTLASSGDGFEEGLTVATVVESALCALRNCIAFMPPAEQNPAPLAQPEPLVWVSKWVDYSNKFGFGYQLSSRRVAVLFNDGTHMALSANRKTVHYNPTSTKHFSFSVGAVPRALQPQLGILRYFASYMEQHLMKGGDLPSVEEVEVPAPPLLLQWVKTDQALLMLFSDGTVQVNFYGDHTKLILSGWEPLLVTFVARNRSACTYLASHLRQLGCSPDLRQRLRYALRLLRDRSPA
Chain of Serine/threonine-protein kinase N1 (Q16512 2-942 limits assumed): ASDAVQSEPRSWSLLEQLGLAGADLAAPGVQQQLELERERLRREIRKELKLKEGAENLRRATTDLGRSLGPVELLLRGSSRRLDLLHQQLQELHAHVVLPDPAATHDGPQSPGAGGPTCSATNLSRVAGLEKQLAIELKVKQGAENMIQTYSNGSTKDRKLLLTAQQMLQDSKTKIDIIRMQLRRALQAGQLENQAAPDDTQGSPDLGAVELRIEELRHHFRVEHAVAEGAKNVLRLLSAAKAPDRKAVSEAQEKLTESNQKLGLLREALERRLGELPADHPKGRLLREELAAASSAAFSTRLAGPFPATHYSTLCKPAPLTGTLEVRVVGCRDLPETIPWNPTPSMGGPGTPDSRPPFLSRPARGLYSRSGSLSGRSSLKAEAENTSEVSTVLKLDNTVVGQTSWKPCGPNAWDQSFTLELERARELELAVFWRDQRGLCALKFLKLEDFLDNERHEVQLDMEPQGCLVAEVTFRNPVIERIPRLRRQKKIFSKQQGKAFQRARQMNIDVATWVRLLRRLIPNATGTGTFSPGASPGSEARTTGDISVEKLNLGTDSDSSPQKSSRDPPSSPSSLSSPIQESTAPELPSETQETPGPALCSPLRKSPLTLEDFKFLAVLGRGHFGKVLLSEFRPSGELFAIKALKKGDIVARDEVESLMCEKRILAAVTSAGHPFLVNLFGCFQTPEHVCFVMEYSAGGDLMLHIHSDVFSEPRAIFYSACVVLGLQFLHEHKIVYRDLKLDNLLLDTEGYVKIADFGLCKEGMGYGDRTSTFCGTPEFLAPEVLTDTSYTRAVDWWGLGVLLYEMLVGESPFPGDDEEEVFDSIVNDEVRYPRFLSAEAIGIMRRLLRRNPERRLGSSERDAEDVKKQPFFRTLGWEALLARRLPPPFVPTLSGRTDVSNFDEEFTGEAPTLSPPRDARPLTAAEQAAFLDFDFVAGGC
Chain of Interferon-induced, double-stranded RNA-activated protein kinase (Homo sapiens) (P19525 whole entry): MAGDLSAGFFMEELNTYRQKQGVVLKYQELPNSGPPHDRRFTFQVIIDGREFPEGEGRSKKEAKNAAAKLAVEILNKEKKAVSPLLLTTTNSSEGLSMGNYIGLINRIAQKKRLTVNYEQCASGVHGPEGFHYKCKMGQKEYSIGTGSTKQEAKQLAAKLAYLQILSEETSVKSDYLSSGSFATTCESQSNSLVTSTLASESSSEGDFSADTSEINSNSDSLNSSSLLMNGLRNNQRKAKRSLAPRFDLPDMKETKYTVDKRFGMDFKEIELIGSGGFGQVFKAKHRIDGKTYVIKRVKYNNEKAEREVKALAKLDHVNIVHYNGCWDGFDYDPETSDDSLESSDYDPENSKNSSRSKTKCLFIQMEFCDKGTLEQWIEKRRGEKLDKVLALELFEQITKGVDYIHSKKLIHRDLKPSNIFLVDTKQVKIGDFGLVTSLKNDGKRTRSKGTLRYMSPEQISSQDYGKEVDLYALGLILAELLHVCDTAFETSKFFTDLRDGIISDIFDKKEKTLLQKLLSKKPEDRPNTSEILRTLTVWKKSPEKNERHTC

% of inhibition [1]: 4%
SMILES: CN1Cc2nccc(-c3cn(C)nc3-c3ccc(F)cc3)c2C1=O

% of inhibition [5]: 3%
SMILES: Cc1ccc(-c2ccc3c(ccc4sc5c(c43)NC[C@@H](C)NC5=O)n2)cn1

% of inhibition [8]: 5.2%
SMILES: CC[C@@H]1[C@H](F)C(=O)N[C@@H]1COc1nccc2cc(C(N)=O)c(OC)cc12 [ZIMLOVISERTIB]

% of control [12]: 17%
SMILES: Cc1cc(-c2ccnc(Nc3cnn(C)c3)n2)ccc1CNC(=O)N1CC(OC(C)C)C1

Further lines, the molecule ahead of its results:

SMILES: Nc1cnc(N2CCc3cc(S(=O)(=O)Nc4c(F)cc(Cl)cc4F)cc(N4CCCC4=O)c32)nc1 [TP-020n]
% of control [2]: 100%
% of control [3]: 95%

SMILES: C=CC(=O)Nc1cc(-n2c(=O)ccc3cnc4ccc(-c5ccc(NS(C)(=O)=O)cc5)cc4c32)ccc1C
% of control ([4]; at 1 µM): 100%
% of control ([4]; at 10 µM): 69%

SMILES: Cc1cc([C@@H](C)Nc2ccccc2C(=O)O)c2nc(N3CCOCC3)cc(=O)n2c1 [AZD-6482]
% of control [6]: 99%
% of control [7]: 100%

SMILES: Cc1cc(CN)cc(C)c1-c1ncn(C)c1-c1cncn1C
dTM [9]: -2.18 K

SMILES: C=CC(=O)Nc1cccc(C(=O)Nc2ccc(Nc3cc(-c4[nH]c(SC)nc4C)ccn3)cc2)c1
% of control ([10]; at 1 µM): 93%
% of control ([10]; at 5 µM): 84%

SMILES: O=C(NOC[C@H](O)CO)c1ccc(F)c(F)c1Nc1ccc(I)cc1F
% of control [11]: 100%
